Assay results from patent US10206902B2, “Mono- or di-substituted indoles as dengue viral replication inhibitors” (priority 2014, dated 2019).

Assays:
[1] = tested on: DENV-2 16681 strain; experiment: DENV-2 antiviral assay (eGFP-labelled virus in Vero cells); assay type: cell-based, Dengue virus; conditions: DENV-2 16681 eGFP, MOI 0.5, 3 days
Protocol: The antiviral activity of all the compounds of the invention was tested against DENV-2 16681 strain which was labeled with enhanced green fluorescent protein (eGPF). The culture medium consists of minimal essential medium supplemented with 2% of heat-inactivated fetal calf serum, 0.04% gentamycin (50 mg/mL) and 2 mM of L-glutamine. Vero cells, obtained from ECACC, were suspended in culture medium and 25 μL was added to 384-well plates (2500 cells/well), which already contain the antiviral compounds. Typically, these plates contain a 4-fold serial dilution of 9 dilution steps of the test compound at 200 times the final concentration in 100% DMSO (200 nL). In addition, each compound concentration is tested in quadruplicate (final concentration range: 25 μM-0.00038 μM). Finally, each plate contains wells which are assigned as virus controls (containing cells and virus in the absence of compound), cell controls (containing cells in the absence of virus and compound) and medium controls (containing medium in the absence of cells, virus and compounds). To the wells assigned as medium control, 25 μL of culture medium was added instead of Vero cells. Once the cells were added to the plates, the plates were incubated for 30 minutes at room temperature to allow the cells to distribute evenly within the wells. Next, the plates were incubated in a fully humidified incubator (37° C., 5% CO2) until the next day. Then, DENV-2 strain 16681, labeled with eGFP, was added at a multiplicity of infection (MOI) of 0.5. Therefore, 15 μL of virus suspension was added to all the wells containing test compound and to the wells assigned as virus control. In parallel, 15 μL of culture medium was added to the medium and cell controls. Next, the plates were incubated for 3 days in a fully humidified incubator (37° C., 5% CO2). At the day of the read out, the eGFP fluorescence was measured using an automated fluorescence microscope at 488 nm (blue laser). Using an in-house LIMS system, inhibition dose response curves for each compound were calculated and the half maximal effective concentration (EC50) was determined. Therefore, the percent inhibition (I) for every test concentration is calculated using the following formula: I=100*(ST−SCC)/(SVC−SCC); ST, SCC and SVC are the amount of eGFP signal in the test compound, cell control and virus control wells, respectively. The EC50 represents the concentration of a compound at which the virus replication is inhibited with 50%, as measured by a 50% reduction of the eGFP fluorescent intensity compared to the virus control. The EC50 is calculated using linear interpolation (Table 1).

[2] = in vitro; assay type: cell-based; conditions: African green monkey, CC50
Protocol: (§1) In parallel, the toxicity of the compounds was assessed on the same plates. Once the read-out for the eGFP signal was done, 10 μL of resazurin, a cell viability stain, was added to all wells of the 384-well plates. The resazurin assay is based on the reduction of the blue resazurin by NADH, produced by the cells, into the highly fluorescent product, resorufin. The formation of pink fluorescent resorufin is directly related to the number of viable cells in the well. The plates were incubated for an additional 5 hours in a fully humidified incubator (37° C., 5% CO2). Next, the plates were measured on an Infinite reader (Tecan) using an excitation wavelength of 530 nm. The half maximal cytotoxic concentration (CO50) was also determined, defined as the concentration required to reduce the resazurin conversion by 50% compared to that of the cell control wells (Table 1). Finally, the selectivity index (SI) was determined for the compounds, which was calculated as followed: SI=CC50/EC50.

[3] = tested on: Vero cells; experiment: in vitro; assay type: cell-based; conditions: African green monkey
Protocol: as §1

[4] = Dengue virus, DENV2, Vero, 72 h

COc1cc(NC(C(=O)c2c[nH]c3c(F)c(F)ccc23)c2ccc(F)cc2OC)cc(OCCO)c1 (single isomer, unassigned) [Compound 5A, 1-(6,7-difluoro-1H-indol-3-yl)-2-(4-fluoro-2-methoxyphenyl)-2-((3-(2-hydroxyethoxy)-5-methoxyphenyl)amino)ethanone]
EC50 [1]: 440 nM
CC50 [2]: 7400 nM

COc1cc(NC(C(=O)c2c[nH]c3cc(OC)c(C)cc23)c2ccc(F)cc2OC)cc(OCCO)c1 (single isomer, unassigned) [Compound 6B, 2-(4-fluoro-2-methoxyphenyl)-2-((3-(2-hydroxyethoxy)-5-methoxyphenyl)amino)-1-(6-methoxy-5-methyl-1H-indol-3-yl)ethanone]
EC50 [1]: 290 nM
CC50 [3]: 9600 nM

COc1cc(NC(C(=O)c2c[nH]c3c(Cl)c(OC)ccc23)c2ccc(F)cc2OC)cc(OCCO)c1 (single isomer, unassigned) [Compound 8B, 1-(7-chloro-6-methoxy-1H-indol-3-yl)-2-(4-fluoro-2-methoxyphenyl)-2-((3-(2-hydroxyethoxy)-5-methoxyphenyl)amino)ethanone]
EC50 [1]: 150 nM
CC50 [2]: 9100 nM

COc1cc(NC(C(=O)c2c[nH]c3c(F)c(F)ccc23)c2ccc(F)cc2OC)cc(OCCO)c1 (racemic) [Compound 5, 1-(6,7-difluoro-1H-indol-3-yl)-2-(4-fluoro-2-methoxyphenyl)-2-((3-(2-hydroxyethoxy)-5-methoxyphenyl)amino)ethanone]
EC50 [1, 4]: 8.9 nM
CC50 [2]: 5200 nM

COc1cc(NC(C(=O)c2c[nH]c3cc(Cl)ccc23)c2ccc(F)cc2OC)cc(OCCO)c1 (single isomer, unassigned) [Compound 4B, 1-(6-chloro-1H-indol-3-yl)-2-(4-fluoro-2-methoxyphenyl)-2-((3-(2-hydroxyethoxy)-5-methoxyphenyl)amino)ethanone]
EC50 [1]: 380 nM
CC50 [2]: 7700 nM

COc1cc(NC(C(=O)c2c[nH]c3c(C)c(Cl)ccc23)c2ccc(F)cc2OC)cc(OCCO)c1 (single isomer, unassigned) [Compound 3B, 1-(6-chloro-7-methyl-1H-indol-3-yl)-2-(4-fluoro-2-methoxyphenyl)-2-((3-(2-hydroxyethoxy)-5-methoxyphenyl)amino)ethanone]
EC50 [1]: 180 nM
CC50 [2]: 5800 nM

COc1cc(NC(C(=O)c2c[nH]c3c(C)c(F)ccc23)c2ccc(F)cc2OC)cc(OCCO)c1 (racemic) [Compound 2, 2-(4-fluoro-2-methoxyphenyl)-1-(6-fluoro-7-methyl-1H-indol-3-yl)-2-((3-(2-hydroxyethoxy)-5-methoxyphenyl)amino)ethanone]
EC50 [1, 4]: 5.4 nM
CC50 [2]: 7000 nM

COc1cc(NC(C(=O)c2c[nH]c3cc(OC)c(F)cc23)c2ccc(F)cc2OC)cc(OCCO)c1 (racemic) [Compound 7, 2-(4-fluoro-2-methoxyphenyl)-1-(5-fluoro-6-methoxy-1H-indol-3-yl)-2-((3-(2-hydroxyethoxy)-5-methoxyphenyl)amino)ethanone]
EC50 [1, 4]: 14 nM
CC50 [2]: > 9700 nM

COc1cc(NC(C(=O)c2c[nH]c3c(C)c(F)ccc23)c2ccc(F)cc2OC)cc(OCCO)c1 (single isomer, unassigned) [Compound 2A, 2-(4-fluoro-2-methoxyphenyl)-1-(6-fluoro-7-methyl-1H-indol-3-yl)-2-((3-(2-hydroxyethoxy)-5-methoxyphenyl)amino)ethanone]
EC50 [1]: 660 nM
CC50 [2]: 5400 nM

COc1cc(NC(C(=O)c2c[nH]c3c(C)c(Cl)ccc23)c2ccc(F)cc2OC)cc(OCCO)c1 (racemic) [Compound 3, 1-(6-chloro-7-methyl-1H-indol-3-yl)-2-(4-fluoro-2-methoxyphenyl)-2-((3-(2-hydroxyethoxy)-5-methoxyphenyl)amino)ethanone]
EC50 [1, 4]: 2.1 nM
CC50 [2]: 6300 nM

COc1cc(NC(C(=O)c2c[nH]c3c(C)c(OC)ccc23)c2ccc(F)cc2OC)cc(OCCO)c1 (racemic) [Compound 11, 2-(4-fluoro-2-methoxyphenyl)-2-((3-(2-hydroxyethoxy)-5-methoxyphenyl)amino)-1-(6-methoxy-7-methyl-1H-indol-3-yl)ethanone]
EC50 [1, 4]: 2.4 nM
CC50 [2]: 10000 nM

COc1cc(NC(C(=O)c2c[nH]c3cc(F)c(F)cc23)c2ccc(F)cc2OC)cc(OCCO)c1 (racemic) [Compound 10, 1-(5,6-difluoro-1H-indol-3-yl)-2-(4-fluoro-2-methoxy-phenyl)-2-((3-(2-hydroxyethoxy)-5-methoxyphenyl)amino)ethanone]
EC50 [1, 4]: 6.8 nM
CC50 [2]: 9300 nM

COc1cc(NC(C(=O)c2c[nH]c3c(Cl)c(OC)ccc23)c2ccc(F)cc2OC)cc(OCCO)c1 (racemic) [Compound 8, 1-(7-chloro-6-methoxy-1H-indol-3-yl)-2-(4-fluoro-2-methoxyphenyl)-2-((3-(2-hydroxyethoxy)-5-methoxyphenyl)amino)ethanone]
EC50 [1, 4]: 3.9 nM
CC50 [2]: 6800 nM

COc1cc(NC(C(=O)c2c[nH]c3cc(F)c(F)cc23)c2ccc(F)cc2OC)cc(OCCO)c1 (single isomer, unassigned) [Compound 10A, 1-(5,6-difluoro-1H-indol-3-yl)-2-(4-fluoro-2-methoxy-phenyl)-2-((3-(2-hydroxyethoxy)-5-methoxyphenyl)amino)ethanone]
EC50 [1]: 580 nM
CC50 [2]: 11000 nM

COc1cc(NC(C(=O)c2c[nH]c3c(F)cc(C)cc23)c2ccc(F)cc2OC)cc(OCCO)c1 (single isomer, unassigned) [Compound 12A, 2-(4-fluoro-2-methoxyphenyl)-1-(7-fluoro-5-methyl-1H-indol-3-yl)-2-((3-(2-hydroxyethoxy)-5-methoxyphenyl)amino)ethanone]
EC50 [1]: 930 nM
CC50 [2]: 9200 nM

COc1cc(NC(C(=O)c2c[nH]c3cc(F)ccc23)c2ccc(F)cc2OC)cc(OCCO)c1 (racemic) [Compound 1, 1-(6-fluoro-1H-indol-3-yl)-2-(4-fluoro-2-methoxyphenyl)-2-((3-(2-hydroxyethoxy)-5-methoxyphenyl)amino)ethanone]
EC50 [1, 4]: 8 nM
CC50 [2]: 11000 nM

COc1cc(NC(C(=O)c2c[nH]c3cc(F)ccc23)c2ccc(F)cc2OC)cc(OCCO)c1 (single isomer, unassigned) [Compound 1B, 1-(6-fluoro-1H-indol-3-yl)-2-(4-fluoro-2-methoxyphenyl)-2-((3-(2-hydroxyethoxy)-5-methoxyphenyl)amino)ethanone]
EC50 [1]: 660 nM
CC50 [2]: 12000 nM

COc1cc(NC(C(=O)c2c[nH]c3c(C)cc(F)cc23)c2ccc(F)cc2OC)cc(OCCO)c1 (single isomer, unassigned) [Compound 9A, 2-(4-fluoro-2-methoxyphenyl)-1-(5-fluoro-7-methyl-1H-indol-3-yl)-2-((3-(2-hydroxyethoxy)-5-methoxyphenyl)amino)ethanone]
EC50 [1]: 630 nM
CC50 [2]: 8800 nM

COc1cc(NC(C(=O)c2c[nH]c3c(C)c(OC)ccc23)c2ccc(F)cc2OC)cc(OCCO)c1 (single isomer, unassigned) [Compound 11B, 2-(4-fluoro-2-methoxyphenyl)-2-((3-(2-hydroxyethoxy)-5-methoxyphenyl)amino)-1-(6-methoxy-7-methyl-1H-indol-3-yl)ethanone]
EC50 [1]: 410 nM
CC50 [2]: 12000 nM
